Test results: US12540131B2 (Merck Sharp & Dohme LLC, priority 2019, dated 2026)

Each compound was assayed against GST tagged truncated human mutant G2019S LRRK2 (Homo sapiens (Human), UniProt Q5S007, G2019S) (assay: LRRK2 Km ATP LanthaScreen Assay). Conditions: G2019S LRRK2, 134 μM ATP (Km ATP), mean values.
Format: biochemical
Summary of the method: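 Enzyme (GST-tagged, truncated) was preincubated with compound for 15 min at RT in 50 mM Tris pH 8.5, 10 mM MgCl2, 0.01% Brij-35, 1 mM EGTA, 2 mM DTT and 0.05 mM orthovanadate. Fluorescein-LRRKtide and 134 μM ATP (Km) were then added for 90 min. EDTA and Tb-anti-pERM antibody stopped the reaction; the TR-FRET 520/495 ratio gave 4-parameter IC50s, reported as mean pIC50.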

GST tagged truncated human mutant G2019S LRRK2, sequence (Q5S007 970-2527 G2019S): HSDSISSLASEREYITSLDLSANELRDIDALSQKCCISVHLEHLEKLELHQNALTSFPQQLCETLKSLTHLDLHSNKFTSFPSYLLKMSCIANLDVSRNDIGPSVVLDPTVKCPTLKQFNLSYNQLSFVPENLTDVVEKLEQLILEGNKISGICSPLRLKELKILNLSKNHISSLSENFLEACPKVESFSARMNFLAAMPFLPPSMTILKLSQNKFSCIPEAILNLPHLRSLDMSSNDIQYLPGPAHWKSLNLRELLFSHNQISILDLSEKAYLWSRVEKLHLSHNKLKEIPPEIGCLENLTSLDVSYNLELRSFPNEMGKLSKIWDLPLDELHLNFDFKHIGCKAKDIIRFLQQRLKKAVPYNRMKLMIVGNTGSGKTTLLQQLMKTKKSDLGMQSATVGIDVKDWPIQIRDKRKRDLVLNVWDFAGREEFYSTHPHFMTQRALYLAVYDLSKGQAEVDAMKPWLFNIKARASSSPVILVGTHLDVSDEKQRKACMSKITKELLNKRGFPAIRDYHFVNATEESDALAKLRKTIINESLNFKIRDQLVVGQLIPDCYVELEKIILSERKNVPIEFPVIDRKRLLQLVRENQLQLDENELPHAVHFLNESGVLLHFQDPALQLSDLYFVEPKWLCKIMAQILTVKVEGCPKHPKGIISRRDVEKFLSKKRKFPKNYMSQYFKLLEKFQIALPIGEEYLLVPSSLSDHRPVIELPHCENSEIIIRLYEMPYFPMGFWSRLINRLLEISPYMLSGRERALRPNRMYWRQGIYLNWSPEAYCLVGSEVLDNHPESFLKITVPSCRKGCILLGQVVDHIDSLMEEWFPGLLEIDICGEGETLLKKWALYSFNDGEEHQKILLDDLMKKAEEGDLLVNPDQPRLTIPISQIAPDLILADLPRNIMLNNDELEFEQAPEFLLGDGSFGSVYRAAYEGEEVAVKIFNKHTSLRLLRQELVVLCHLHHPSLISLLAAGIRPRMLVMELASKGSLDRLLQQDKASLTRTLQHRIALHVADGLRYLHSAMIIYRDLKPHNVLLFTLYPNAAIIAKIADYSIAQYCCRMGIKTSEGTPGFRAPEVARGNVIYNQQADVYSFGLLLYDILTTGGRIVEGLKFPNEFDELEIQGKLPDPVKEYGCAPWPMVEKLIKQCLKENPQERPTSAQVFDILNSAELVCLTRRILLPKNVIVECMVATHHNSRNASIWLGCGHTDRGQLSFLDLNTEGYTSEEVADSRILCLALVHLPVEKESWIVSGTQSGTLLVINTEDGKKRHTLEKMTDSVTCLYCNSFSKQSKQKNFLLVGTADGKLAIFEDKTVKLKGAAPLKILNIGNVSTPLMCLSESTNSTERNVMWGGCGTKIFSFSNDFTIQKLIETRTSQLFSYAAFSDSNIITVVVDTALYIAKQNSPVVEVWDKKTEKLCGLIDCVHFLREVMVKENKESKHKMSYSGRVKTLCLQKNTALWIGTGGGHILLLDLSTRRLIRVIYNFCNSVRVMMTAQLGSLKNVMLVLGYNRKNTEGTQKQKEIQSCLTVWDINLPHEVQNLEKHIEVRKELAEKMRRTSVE

| SMILES | LRRK2 pIC50 |
| --- | --- |
| Cc1cc2cnc(Nc3cnn(C4CC4(F)F)c3C)nc2cc1[C@@H]1CCN([C@@H]2COC[C@@H]2O)C[C@H]1F (single isomer, unassigned) [Ex-4.146, (R)(3S,4S)(3S,4S) or (R)(3S,4S)(3R,4R) or (R)(3R,4R)(3S,4S) or (R)(3R,4R)(3R,4R) or (S)(3S,4S)(3S,4S) or (S)(3S,4S)(3R,4R) or (S)(3R,4R)(3S,4S) or (S)(3R,4R)(3R,4R) 4-[4-(2-{[1-(2,2-difluorocyclopropyl)-5-methyl-1H-pyrazol-4-yl]amino}-6-methylquinazolin-7-yl)-3-fluoropiperidin-1-yl]oxolan-3-ol] | >9.20 |
| Cc1cc2cnc(Nc3cnn(C4CC4(F)F)c3Cl)nc2cc1[C@@H]1CCN([C@@]2(C)COC[C@H]2O)C[C@H]1F (single isomer, unassigned) [Ex-4.147, (R)(3S,4S)(3S,4S) or (R)(3S,4S)(3R,4R) or (R)(3R,4R)(3S,4S) or (R)(3R,4R)(3R,4R) or (S)(3S,4S)(3S,4S) or (S)(3S,4S)(3R,4R) or (S)(3R,4R)(3S,4S) or (S)(3R,4R)(3R,4R) 4-[4-(2-{[5-chloro-1-(2,2-difluorocyclopropyl)-1H-pyrazol-4-yl]amino}-6-methylquinazolin-7-yl)-3-fluoropiperidin-1-yl]-4-methyloxolan-3-ol] | >9.20 |
| Cc1cc2cnc(Nc3cnn(C4CC4)c3Cl)nc2cc1[C@@H]1CCN([C@@]2(C)COC[C@H]2O)C[C@H]1F (single isomer, unassigned) [Ex-4.148, (3S,4S)(3S,4S) or (3S,4S)(3R,4R) or (3R,4R)(3S,4S) or (3R,4R)(3R,4R) 4-(4-{2-[(5-chloro-1-cyclopropyl-1H-pyrazol-4-yl)amino]-6-methylquinazolin-7-yl}-3-fluoropiperidin-1-yl)-4-methyloxolan-3-ol] | >9.20 |
| Cc1cc2cnc(Nc3cnn(C4CC4)c3Cl)nc2cc1[C@@H]1CCN([C@]2(C)COC[C@@H]2O)C[C@H]1F (single isomer, unassigned) [Ex-4.149, (3S,4S)(3S,4S) or (3S,4S)(3R,4R) or (3R,4R)(3S,4S) or (3R,4R)(3R,4R) 4-(4-{2-[(5-chloro-1-cyclopropyl-1H-pyrazol-4-yl)amino]-6-methylquinazolin-7-yl}-3-fluoropiperidin-1-yl)-4-methyloxolan-3-ol] | >9.20 |
| Cc1cc2cnc(Nc3cnn(C4CC4)c3Cl)nc2cc1[C@@H]1CCN([C@@H]2COC[C@@H]2O)C[C@H]1F (single isomer, unassigned) [Ex-4.150, (3S,4S)(3S,4S) or (3S,4S)(3R,4R) or (3R,4R)(3S,4S) or (3R,4R)(3R,4R) 4-(4-{2-[(5-chloro-1-cyclopropyl-1H-pyrazol-4-yl)amino]-6-methylquinazolin-7-yl}-3-fluoropiperidin-1-yl)oxolan-3-ol] | >9.20 |
| O[C@H]1COC[C@H]1N1CCC(c2cc3nc(Nc4cnn(C56CC(C5)C6)c4)ncc3cc2Cl)CC1 (single isomer, unassigned) [Ex-4.151, (3S,4S) or (3R,4R) 4-[4-(2-{[1-(bicyclo[1.1.1]pentan-1-yl)-1H-pyrazol-4-yl]amino}-6-chloroquinazolin-7-yl)piperidin-1-yl]oxolan-3-ol] | 8.98 |
| O[C@@H]1COC[C@@H]1N1CCC(c2cc3nc(Nc4cnn(C56CC(C5)C6)c4)ncc3cc2Cl)CC1 (single isomer, unassigned) [Ex-4.152, (3S,4S) or (3R,4R) 4-[4-(2-{[1-(bicyclo[1.1.1]pentan-1-yl)-1H-pyrazol-4-yl]amino}-6-chloroquinazolin-7-yl)piperidin-1-yl]oxolan-3-ol] | >9.20 |
| O[C@@H]1COC[C@@H]1N1CC[C@@H](c2cc3nc(Nc4cnn(C56CC(C5)C6)c4)ncc3cc2Cl)[C@H](F)C1 (single isomer, unassigned) [Ex-4.153, (3S,4S)(3S,4S) or (3S,4S)(3R,4R) or (3R,4R)(3S,4S) or (3R,4R)(3R,4R) 4-[4-(2-{[1-(bicyclo[1.1.1]pentan-1-yl)-1H-pyrazol-4-yl]amino}-6-chloroquinazolin-7-yl)-3-fluoropiperidin-1-yl]oxolan-3-ol] | >9.20 |
